Results reported in patent US20040024024A1, “Aromatic sulfone hydroxamates and their use as protease inhibitors” (priority 2001, published 2004).
pIC50: −log10 of the molar value.

Tests used:
Human recombinant MMP-2 = target: T1, Human recombinant MMP-2 (Homo sapiens, UniProt P08253); assay: In vitro MMP inhibition, IC50 determination (fluorogenic substrate I); type: biochemical; details: value outside parenthesis
T1 construct: made in house; host or cells: MMP-2-transfected p2AHT2 cells
T1 sequence (P08253 110-660): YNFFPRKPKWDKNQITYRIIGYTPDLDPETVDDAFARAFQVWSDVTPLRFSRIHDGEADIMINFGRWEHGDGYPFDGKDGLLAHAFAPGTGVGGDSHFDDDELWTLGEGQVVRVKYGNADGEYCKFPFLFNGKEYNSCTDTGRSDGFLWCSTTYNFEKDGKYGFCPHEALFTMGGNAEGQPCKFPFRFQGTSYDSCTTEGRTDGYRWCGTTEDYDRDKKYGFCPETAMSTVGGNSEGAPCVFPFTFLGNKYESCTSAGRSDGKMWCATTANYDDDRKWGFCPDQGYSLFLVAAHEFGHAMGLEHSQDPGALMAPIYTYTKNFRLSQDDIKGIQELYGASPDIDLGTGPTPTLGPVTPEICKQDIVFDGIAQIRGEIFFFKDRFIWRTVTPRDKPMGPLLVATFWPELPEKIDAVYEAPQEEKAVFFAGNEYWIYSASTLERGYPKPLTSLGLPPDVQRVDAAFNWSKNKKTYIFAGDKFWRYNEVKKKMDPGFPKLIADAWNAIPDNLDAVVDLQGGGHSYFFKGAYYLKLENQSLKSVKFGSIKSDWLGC
Outline: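 APMA- or trypsin-activated recombinant MMP-2 was incubated at room temperature with serial inhibitor dilutions in Tris buffer pH 7.5 (100 mM NaCl, 10 mM CaCl2, 0.05% Brij), with DMSO from 1% stocks, and 4 μM substrate I. Cleavage was read by fluorescence at 328/415 nm; IC50 was taken from the loss of fluorescence versus inhibitor concentration.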

Human recombinant MMP-13 = target: T2, Human recombinant MMP-13 (Homo sapiens, UniProt P45452); assay: as above; type: biochemical; details: value outside parenthesis
T2 construct: made in house; host or cells: baculovirus / insect cells
Outline: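 Fluorescence at 415 nm (excitation 328 nm) reports Gly-Leu cleavage of 4 μM quenched methoxycoumarin peptide substrate I. Human recombinant MMP-13, activated by trypsin or APMA, was incubated at room temperature with varied inhibitor concentrations in pH 7.5 Tris/NaCl/CaCl2 buffer; IC50 derived from reduced fluorescence.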

Structure (SMILES)	pIC50 (Human recombinant MMP-2)	pIC50 (Human recombinant MMP-13)
O=C(NO)C1(S(=O)(=O)c2ccc(OCCCc3cccc(-c4ccc(F)c(F)c4)c3)cc2)CCOCC1 [Example 170]	5.79	8.48
O=C(NO)C1(S(=O)(=O)c2ccc(OCCCc3cccc(-c4ccc(Cl)c(Cl)c4)c3)cc2)CCOCC1 [Example 169]	5.36	7.15
O=C(NO)C1(S(=O)(=O)c2ccc(OCCc3cccc(-c4ccc(Cl)cc4Cl)c3)cc2)CCOCC1 [Example 124]	5.67	7.66
COc1ccc(-c2cccc(CCOc3ccc(S(=O)(=O)C4(C(=O)NO)CCOCC4)cc3)c2)cc1C [Example 119]	5.93	7.74
Cc1cc(-c2cccc(CCCOc3ccc(S(=O)(=O)C4(C(=O)NO)CCOCC4)cc3)c2)ccc1Cl [Example 166]	5.51	6.87
O=C(NO)C1(S(=O)(=O)c2ccc(OCCCc3cccc(-c4cc(Cl)cc(Cl)c4)c3)cc2)CCOCC1 [Example 172]	5.29	6.42
Cc1ccc(-c2cccc(CCOc3ccc(S(=O)(=O)C4(C(=O)NO)CCOCC4)cc3)c2)cc1C [Example 117]	5.76	7.80
CC(C)c1ccc(-c2cccc(CCOc3ccc(S(=O)(=O)C4(C(=O)NO)CCOCC4)cc3)c2)cc1 [Example 109]	5.27	6.82
O=C(NO)C1(S(=O)(=O)c2ccc(OCCc3cccc(-c4cc(F)cc(F)c4)c3)cc2)CCOCC1 [Example 110]	5.92	8.12
O=C(NO)C1(S(=O)(=O)c2ccc(OCCc3cccc(-c4cc(Cl)cc(Cl)c4)c3)cc2)CCOCC1 [Example 126]	5.49	6.46
Cc1cc(-c2cccc(CCOc3ccc(S(=O)(=O)C4(C(=O)NO)CCOCC4)cc3)c2)ccc1Cl [Example 118]	5.73	7.53
O=C(NO)C1(S(=O)(=O)c2ccc(OCCCc3cccc(-c4ccc(Cl)cc4Cl)c3)cc2)CCOCC1 [Example 171]	5.64	7.20
O=C(NO)C1(S(=O)(=O)c2ccc(OCCc3cccc(-c4ccc(Cl)c(Cl)c4)c3)cc2)CCOCC1 [Example 121]	5.61	7.67
Cc1cc(-c2cccc(CCCOc3ccc(S(=O)(=O)C4(C(=O)NO)CCOCC4)cc3)c2)ccc1F [Example 168]	5.46	7.46

Stronger by pIC50 (Human recombinant MMP-2), values ahead:

pIC50 (Human recombinant MMP-2)	pIC50 (Human recombinant MMP-13)	Structure (SMILES)
5.98	7.95	Cc1ccccc1-c1cccc(CCOc2ccc(S(=O)(=O)C3(C(=O)NO)CCOCC3)cc2)c1 [Example 116]
6.00	8.28	O=C(NO)C1(S(=O)(=O)c2ccc(OCCc3cccc(-c4ccccc4Cl)c3)cc2)CCOCC1 [Example 114]
6.13	7.81	O=C(NO)C1(S(=O)(=O)c2ccc(OCCCc3nc(-c4ccc(OC(F)(F)F)cc4)no3)cc2)CCN(Cc2ccccc2)CC1 [Example 93]
6.15	7.68	CCCCc1ccc(-c2noc(CCCOc3ccc(S(=O)(=O)C4(C(=O)NO)CCOCC4)cc3)n2)c(C)c1 [Example 183]
6.18	7.63	COCCN1CCC(C(=O)NO)(S(=O)(=O)c2ccc(OCCCc3nc(-c4ccc(CC(C)C)cc4C)no3)cc2)CC1 [Example 128]
6.25	8.70	O=C(NO)C1(S(=O)(=O)c2ccc(OCCc3cccc(-c4cccc(F)c4)c3)cc2)CCOCC1 [Example 111]
6.88	8.13	COCCN1CCC(C(=O)NO)(S(=O)(=O)c2ccc(OCCCc3nc(-c4cccc5ccccc45)no3)cc2)CC1 [Example 199]
7.07	7.91	COCCN1CCC(C(=O)NO)(S(=O)(=O)c2ccc(OCCCc3nc(-c4ccc(C5(c6ccccc6)CC5)cc4)no3)cc2)CC1 [Example 185]
7.18	7.42	O=C(NO)C1(S(=O)(=O)c2ccc(OCCc3cccc(-c4ccc(OC(F)(F)F)cc4)c3)cc2)CCOCC1 [Example 112]
7.38	8.72	NC(=O)c1cccc(-c2noc(CCCOc3ccc(S(=O)(=O)C4(C(=O)NO)CCN(C5CC5)CC4)cc3)n2)c1 [Example 129]
7.61	8.54	COCCN1CCC(C(=O)NO)(S(=O)(=O)c2ccc(OCCCc3nc(-c4ccc(Br)cc4C)no3)cc2)CC1 [Example 135]
7.69	8.15	O=C(NO)C1(S(=O)(=O)c2ccc(OCCCc3nc(C4CCCCC4)no3)cc2)CCN(C2CC2)CC1 [Example 137]
